Assay results reported in paper PMC3250956, “Functional characterization and analgesic effects of mixed cannabinoid receptor/T-type channel ligands” (Molecular Pain, 2011).
Where two headings read alike, the source gives them in different places.

Columns and labels:
rat 5-HT2C = biological target: T1, rat 5-HT2C (Rattus norvegicus, UniProt P08909); test: Primary radioligand competitive binding assay, [3H]mesulergine; details: ligand 10 μM, HEK293 cells
T1 construct: expressed in transfected cells; host or cells: HEK293 (Flp-In system, pcDNA5.0FRT)
T1 sequence (P08909 33-460): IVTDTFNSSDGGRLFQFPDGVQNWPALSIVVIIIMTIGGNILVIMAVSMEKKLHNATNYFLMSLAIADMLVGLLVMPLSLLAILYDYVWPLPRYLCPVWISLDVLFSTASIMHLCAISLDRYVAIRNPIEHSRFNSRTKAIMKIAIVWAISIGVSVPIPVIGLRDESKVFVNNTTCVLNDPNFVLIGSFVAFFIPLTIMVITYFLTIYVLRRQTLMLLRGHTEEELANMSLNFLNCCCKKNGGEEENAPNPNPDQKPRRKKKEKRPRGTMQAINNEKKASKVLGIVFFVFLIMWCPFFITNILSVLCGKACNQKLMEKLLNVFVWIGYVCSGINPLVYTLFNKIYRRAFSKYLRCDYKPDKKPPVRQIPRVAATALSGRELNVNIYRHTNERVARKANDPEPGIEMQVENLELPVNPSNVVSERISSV
Protocol: (§1) HEK293 cells and CHO cells were used in the radioligand binding assay while tsA-201 cells were used in the electrophysiological study. Human CB2, human 5-HT2A, rat 5-HT2C used in the binding studies were cloned into pcDNA5.0FRT and cell lines were made using the FlpIn system from Invitrogen. tsA-201 cell culture and transient calcium channel transfection were performed as described previously. In brief, tsA-201 cells were transfected using the calcium phosphate method. Cav3.1, 3.2 and 3.3 α1 subunits were transfected individually with yellow fluorescent protein as a transfection marker.
Radioligand binding data were obtained using National Institute of Mental Health's Psychoactive Drug Screening Program (NIMH/PDSP) using the same protocol described for CB1 and CB2 binding experiments. Transfected HEK293 (human 5-HT2A or rat 5-HT2C) cells were used. The radioligands were [^3H]ketanserin (0.5 nM) and [^3H]mesulergine (0.5 nM) for respectively 5-HT2A and 5-HT2C experiments. Non-specific binding was determined in the presence of 10 μM chlorpromazine for both 5-HT2A and 5-HT2C binding experiments. Cells were harvested and homogenized in 50 mM Tris HCl, 10 mM MgCl2, 0.1 mM EDTA, pH 7.4. Incubation of radioreceptor binding assay mixtures was 1.5 hours at room temperature in the dark.

Human CB2 = Human CB2 (Homo sapiens, UniProt P34972); test: Radioligand competitive binding, [3H]CP55940, HEK293 cells; design: expressed in transfected cells; details: for Human CB2 (%) primary radioligand competitive binding: ligand 10 μM, HEK293 cells
Protocol: as §1
(§2) CB1 and CB2 radioligand binding data were obtained using National Institute of Mental Health (NIMH) Psychoactive Drug Screening Program (PDSP) resources as described earlier. Compounds were screened in a competitive binding experiment using, respectively, membrane fractions prepared from rat brain homogenate expressing CB1 receptor and HEK293 cells expressing the human CB2 receptor. Experiments were conducted at a range of different concentrations and in duplicate. The competition binding experiment for CB1 and CB2 was performed in 96 well plates containing Standard Binding Buffer (50 mM Tris HCl, 1 mM EDTA, 3 mM MgCl2, 5 mg/ml fatty acid-free BSA, pH 7.4). The radioligand was [^3H]CP55940, and the reference compound was CP55940. A solution of the compound to be tested was prepared as a 1 mg/ml stock in DMSO and then diluted in Standard Binding Buffer by serial dilution. Radioligand was diluted to five times the assay concentration in Standard Binding Buffer. Aliquots (50 μl) of radioligand were dispensed into the wells of a 96-well plate containing 100 μl of Standard Binding Buffer. Then, duplicate 50-μl aliquots of the test and reference compound dilutions were added. Finally, crude membrane fractions of cells were resuspended in 3 ml of chilled Standard Binding Buffer and homogenized by several passages through a 26 gauge needle, then 50 μl were dispensed into each well. The 250-μl reactions were incubated at room temperature for 1.5 hours, and then harvested by rapid filtration onto Whatman GF/B glass fiber filters pre-soaked with 0.3% polyethyleneimine using a 96-well Brandel harverster. Four rapid 500-μl washes were performed. Filters were placed in 6-ml scintillation tubes and allowed to dry overnight. Bound radioactivity was harvested onto 0.3% polyethyleneimine-treated, 96-well filter mats using a 96-well Filtermate harvester. The filter mats were dried, then scintillant was melted onto the filters and the radioactivity retained on the filters counted in a Microbeta scintillation counter. Raw data (dpm) representing total radioligand binding (i.e., specific + non-specific binding) were plotted as a function of the logarithm of the molar concentration of the competitor (i.e., test or reference compound). Non-linear regression of the normalized (i.e., percent radioligand binding compared to that observed in the absence of test or reference compound) raw data was performed in Prism 4.0 (GraphPad Software) using the built-in three parameter logistic model describing ligand competition binding to radioligand-labeled sites: y = bottom + [(top-bottom)/(1 + 10 × -logIC50)] where bottom equals the residual radioligand binding measured in the presence of 10 μM reference compound (i.e., non-specific binding) and top equals the total radioligand binding observed in the absence of competitor. The log IC50 (i.e., the log of the ligand concentration that reduces radioligand binding by 50%) is thus estimated from the data and used to obtain the Ki by applying the Cheng-Prusoff approximation: Ki = IC50/(1 + [ligand]/KD) where [ligand] equals the assay radioligand concentration and KD equals the affinity constant of the radioligand for the target receptor.

Human CB1 = Human CB1 (Homo sapiens, UniProt P21554); test: GTPγ[35S] functional assay, CHO cell membrane extracts; design: Emax: dose or concentration left out as unconfirmed
Protocol: Functional activity was evaluated using GTPγ[^35S] assay in CHO cell membrane extracts expressing recombinant human CB1 or CB2 receptors as we previously described [51]. Compounds were solubilized in 100% DMSO at a concentration of 10 mM within 4 hours of the first testing session. A predilution for the dose response curve was performed in 100% DMSO and then diluted 100 fold in assay buffer at a concentration 2 fold higher than the concentration to be tested. […] Membranes were mixed with GDP diluted in assay buffer to give 30 μM solution (volume:volume) and incubated for at least 15 min on ice. In parallel, GTPγ[^35S] (GE Healthcare, Catalogue number SJ1308) were mixed with the beads (PVT-WGA (GE Healthcare, RPNQ001)), diluted in assay buffer at 50 mg/ml (0.5 mg/10 μl) (volume:volume) just before starting the reaction. The following reagents were successively added in the wells of an Optiplate (Perkin Elmer): 50 μl of ligand, 20 μl of the membranes:GDP mix, 10 μl of assay buffer for agonist testing, and 20 μl of the GTPγ[^35S]:beads mix. The plates were covered with a topseal, shacked on an orbital shaker for 2 min, and then incubated for 1 hour at room temperature. Then the plates were centrifuged for 10 min at 2000 rpm and counted for 1 min/well with a PerkinElmer TopCount reader. […] For replicate determinations, the maximum variability tolerated in the test was of ± 20% around the average of the replicates.

Rat CB1 = biological target: T2, Rat CB1 (Rattus norvegicus, UniProt P20272); test: Radioligand competitive binding, [3H]CP55940, rat brain homogenate; details: for Rat CB1 (%) primary radioligand competitive binding: ligand 10 μM, rat brain homogenates
T2 construct: membrane fractions prepared from rat brain homogenate expressing CB1 receptor; from tissue; host or cells: rat brain homogenate
Protocol: as §2

N-type calcium channels = biological target: T3, N-type calcium channels (Homo sapiens, UniProt Q00975); test: Whole-cell patch-clamp on N-type calcium channels; assay type: cell-based; details: n = 5, read-out: effect on N-type calcium channels (inhibition)
T3 construct: expressed in transfected cells; host or cells: tsA-201 cells (general electrophysiology statement)

T2 sequence (P20272 whole entry): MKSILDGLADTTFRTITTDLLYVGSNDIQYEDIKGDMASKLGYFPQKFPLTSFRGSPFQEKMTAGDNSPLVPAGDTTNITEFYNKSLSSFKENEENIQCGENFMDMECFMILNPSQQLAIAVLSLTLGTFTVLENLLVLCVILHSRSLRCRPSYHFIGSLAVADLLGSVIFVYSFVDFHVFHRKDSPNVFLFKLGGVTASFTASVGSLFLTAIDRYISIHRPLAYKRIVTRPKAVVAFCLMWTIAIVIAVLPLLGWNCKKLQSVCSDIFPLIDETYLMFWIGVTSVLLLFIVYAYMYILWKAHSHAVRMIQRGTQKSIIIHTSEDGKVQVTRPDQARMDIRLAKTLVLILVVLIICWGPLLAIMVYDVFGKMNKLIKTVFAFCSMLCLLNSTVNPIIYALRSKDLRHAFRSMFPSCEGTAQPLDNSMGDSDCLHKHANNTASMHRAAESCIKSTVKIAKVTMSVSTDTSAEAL
Sequence of Human CB2 (P34972 whole entry): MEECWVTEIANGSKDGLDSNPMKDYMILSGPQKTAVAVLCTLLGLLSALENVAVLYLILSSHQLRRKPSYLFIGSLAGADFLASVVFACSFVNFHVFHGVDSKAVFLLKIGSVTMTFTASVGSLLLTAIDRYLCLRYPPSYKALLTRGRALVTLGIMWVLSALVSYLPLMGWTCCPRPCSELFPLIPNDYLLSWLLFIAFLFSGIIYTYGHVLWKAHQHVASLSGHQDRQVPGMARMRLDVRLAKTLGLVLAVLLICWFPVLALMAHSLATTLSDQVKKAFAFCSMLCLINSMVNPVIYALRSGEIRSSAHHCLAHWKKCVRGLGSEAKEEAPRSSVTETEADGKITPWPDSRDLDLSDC
Sequence of Human CB1 (P21554 whole entry): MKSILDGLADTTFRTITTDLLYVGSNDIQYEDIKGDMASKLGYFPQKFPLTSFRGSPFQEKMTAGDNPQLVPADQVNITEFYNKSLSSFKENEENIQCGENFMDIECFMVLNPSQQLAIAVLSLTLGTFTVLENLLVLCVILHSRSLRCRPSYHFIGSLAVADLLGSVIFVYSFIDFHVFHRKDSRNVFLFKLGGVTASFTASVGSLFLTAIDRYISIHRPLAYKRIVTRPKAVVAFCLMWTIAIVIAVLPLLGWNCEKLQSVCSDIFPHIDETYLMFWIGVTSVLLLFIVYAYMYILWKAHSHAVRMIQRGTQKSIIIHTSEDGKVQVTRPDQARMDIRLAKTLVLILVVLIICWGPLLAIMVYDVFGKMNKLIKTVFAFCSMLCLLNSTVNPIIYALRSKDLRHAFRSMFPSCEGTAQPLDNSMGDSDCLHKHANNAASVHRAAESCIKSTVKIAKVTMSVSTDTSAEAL

| SMILES | Rat 5-HT2C (%) primary radioligand competitive binding (rat 5-HT2C) [%] | Ki (Human CB2; NA: not active at 1 μM, read-out: Mean Ki Human CB2) [nM] | Human CB2 (%) primary radioligand competitive binding (Human CB2) [%] | EC50 (Human CB1) [nM] | Emax (Human CB1; read-out: GTPγ[35S] functional assays Human CB1 Emax) [%] | Ki (Rat CB1; NA: not active at 1 μM, read-out: Mean Ki Rat CB1) [nM] | Rat CB1 (%) primary radioligand competitive binding (Rat CB1) [%] | inhibition at 10 µM (N-type calcium channels) [%] | Ki (Human CB2) [nM] | Ki (Rat CB1) [nM] |
| --- | --- | --- | --- | --- | --- | --- | --- | --- | --- | --- |
| CCCCCn1c2ccc(C(=O)N3CCCCC3)cc2c2ccc(OC)cc21 [NMP-4] | -9.3 | 7.5 ± 0.7 | 104.4 | 118 ± 4 | 30.4 | 12.8 ± 1.8 | 99.3 |  |  |  |
| CCCCCn1c2c(c3ccc(OC)cc31)CN(C(=O)c1ccccc1)CC2 [NMP-144] | 13 |  | 90.6 |  |  |  | 67.4 | 20 | 706 ± 110 | 1140 ± 264 |
